Columns and labels:
[1] = tested on: MRL/lpr mice; assay: MRL/lpr model of SLE; format: in vivo, mouse; details: vs vehicle; for IL-10, percent reduction in disease severity / IL-12p40, percent reduction in disease severity: plasma
Procedure: Male MRL/lpr mice of 12-14 weeks age were screened and randomized based on the titres of anti-dsDNA antibodies and urinary NGAL (Neutrophil Gelatinase Associated Lipocalin). Mice were treated orally, once daily for 8 weeks with vehicle or test compound. The effect of test compound on disease severity was assessed by measuring end points including proteinuria, urinary-NGAL, urinary TIMP1, blood urea nitrogen (BUN), anti-dsDNA Ab, anti-smRNP Ab titer, and plasma levels of IL10 and IL12p40. At the end of experiment, all mice were euthanized by CO2 asphyxiation and kidney samples were subjected for histology. To calculate the significance of test compound treated group vs. vehicle control group, one way ANOVA with Dunnett's test was performed. Percent reduction in disease severity was calculated for each parameter, for test compound treated group vs vehicle control group.

[2] = target: human TLR8 (Homo sapiens (Human), UniProt Q9NR97); assay: TLR8 inhibition reporter assay (HEK-Blue SEAP); details: read-out: TLR8 IC50; HEK-Blue cells overexpressing human TLR8, SEAP reporter, R848 15.9 μM;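 also: SEAP driven by IFN-β minimal promoter carrying NF-κB and AP-1 sites, compounds dosed 0.05 nM to 50 µM for 22 h, inhibition scaled between agonist-plus-DMSO and reference-inhibitor wells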
[3] = target: human TLR9 (Homo sapiens (Human), UniProt Q9NR96); assay: TLR9 inhibition reporter assay (HEK-Blue SEAP); details: read-out: TLR9 IC50; HEK-Blue cells overexpressing human TLR9, SEAP reporter, ODN2006 5 nM;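 also: SEAP driven by an IFN-β minimal promoter with NF-κB and AP-1 sites, read after 22 h, compounds dosed 0.05 nM–50 µM, inhibition scaled between agonist plus DMSO and reference-inhibitor wells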
[4] = target: TLR7 (Mus musculus (Mouse), UniProt P58681); assay: In vivo mouse TLR7 PD model (gardiquimod challenge, plasma IL-6 and IFN-alpha); details: C57BL/6 mice, plasma 90 min after gardiquimod i.p., vs vehicle
Procedure: In Vivo Mouse TLR7 PD Model:
Adult male C57BL/6 mice were used for the experiments. Mice (7 to 10 per group) were randomized into different treatment groups based on body weight. Mice from the respective treatment groups were administered orally with vehicle or test compound. Thirty min after the oral administration of vehicle or test compound, mice were challenged with intraperitoneal injection of gardiquimod for TLR7 PD model. Ninety minutes after gardiquimod injection, mice were bled under isoflurane anaesthesia and plasma IL-6 and IFN-alpha levels were estimated by using commercially available ELISA kit (BD Biosciences, PBL Life Sciences). At the end of experiment, mean cytokine data was plotted and one way ANOVA with Dunnett's test was performed to calculate the significance of test compound treated group vs. vehicle control group. Percent inhibition of cytokine induction was calculated for test compound treated group vs vehicle control group.

[5] = 0.1 mg/kg oral once daily 8 weeks
[6] = 0.3 mg/kg oral once daily 8 weeks
[7] = 1 mg/kg oral once daily 8 weeks
[8] = 3 mg/kg oral once daily 8 weeks
[9] = 10 mg/kg oral once daily 8 weeks

Sequence of TLR7 (P58681 27-1050): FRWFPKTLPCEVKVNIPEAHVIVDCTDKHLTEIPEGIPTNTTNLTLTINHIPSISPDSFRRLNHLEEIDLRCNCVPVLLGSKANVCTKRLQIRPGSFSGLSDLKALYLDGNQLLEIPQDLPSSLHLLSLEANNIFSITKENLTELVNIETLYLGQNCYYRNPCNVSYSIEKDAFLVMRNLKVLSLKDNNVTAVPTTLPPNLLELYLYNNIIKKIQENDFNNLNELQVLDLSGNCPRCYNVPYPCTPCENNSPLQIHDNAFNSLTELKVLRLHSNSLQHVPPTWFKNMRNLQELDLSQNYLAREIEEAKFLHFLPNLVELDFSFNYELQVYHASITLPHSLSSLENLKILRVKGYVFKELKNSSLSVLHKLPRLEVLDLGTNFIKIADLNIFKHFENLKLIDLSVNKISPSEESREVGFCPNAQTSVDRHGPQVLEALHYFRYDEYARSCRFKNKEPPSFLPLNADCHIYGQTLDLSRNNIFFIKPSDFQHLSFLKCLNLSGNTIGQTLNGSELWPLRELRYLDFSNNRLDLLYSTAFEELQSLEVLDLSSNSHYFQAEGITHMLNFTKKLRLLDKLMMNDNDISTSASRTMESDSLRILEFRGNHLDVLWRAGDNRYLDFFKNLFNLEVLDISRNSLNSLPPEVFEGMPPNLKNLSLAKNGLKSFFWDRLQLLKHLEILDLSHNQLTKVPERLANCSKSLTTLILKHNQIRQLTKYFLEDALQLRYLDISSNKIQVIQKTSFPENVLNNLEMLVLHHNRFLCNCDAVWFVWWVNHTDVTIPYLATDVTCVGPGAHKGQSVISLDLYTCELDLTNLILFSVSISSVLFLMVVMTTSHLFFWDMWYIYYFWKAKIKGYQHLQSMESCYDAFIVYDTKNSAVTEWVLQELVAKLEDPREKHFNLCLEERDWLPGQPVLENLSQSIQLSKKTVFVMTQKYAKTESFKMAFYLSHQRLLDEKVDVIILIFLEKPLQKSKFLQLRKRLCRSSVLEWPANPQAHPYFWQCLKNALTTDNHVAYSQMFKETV
Sequence of human TLR9 (Q9NR96 26-1032): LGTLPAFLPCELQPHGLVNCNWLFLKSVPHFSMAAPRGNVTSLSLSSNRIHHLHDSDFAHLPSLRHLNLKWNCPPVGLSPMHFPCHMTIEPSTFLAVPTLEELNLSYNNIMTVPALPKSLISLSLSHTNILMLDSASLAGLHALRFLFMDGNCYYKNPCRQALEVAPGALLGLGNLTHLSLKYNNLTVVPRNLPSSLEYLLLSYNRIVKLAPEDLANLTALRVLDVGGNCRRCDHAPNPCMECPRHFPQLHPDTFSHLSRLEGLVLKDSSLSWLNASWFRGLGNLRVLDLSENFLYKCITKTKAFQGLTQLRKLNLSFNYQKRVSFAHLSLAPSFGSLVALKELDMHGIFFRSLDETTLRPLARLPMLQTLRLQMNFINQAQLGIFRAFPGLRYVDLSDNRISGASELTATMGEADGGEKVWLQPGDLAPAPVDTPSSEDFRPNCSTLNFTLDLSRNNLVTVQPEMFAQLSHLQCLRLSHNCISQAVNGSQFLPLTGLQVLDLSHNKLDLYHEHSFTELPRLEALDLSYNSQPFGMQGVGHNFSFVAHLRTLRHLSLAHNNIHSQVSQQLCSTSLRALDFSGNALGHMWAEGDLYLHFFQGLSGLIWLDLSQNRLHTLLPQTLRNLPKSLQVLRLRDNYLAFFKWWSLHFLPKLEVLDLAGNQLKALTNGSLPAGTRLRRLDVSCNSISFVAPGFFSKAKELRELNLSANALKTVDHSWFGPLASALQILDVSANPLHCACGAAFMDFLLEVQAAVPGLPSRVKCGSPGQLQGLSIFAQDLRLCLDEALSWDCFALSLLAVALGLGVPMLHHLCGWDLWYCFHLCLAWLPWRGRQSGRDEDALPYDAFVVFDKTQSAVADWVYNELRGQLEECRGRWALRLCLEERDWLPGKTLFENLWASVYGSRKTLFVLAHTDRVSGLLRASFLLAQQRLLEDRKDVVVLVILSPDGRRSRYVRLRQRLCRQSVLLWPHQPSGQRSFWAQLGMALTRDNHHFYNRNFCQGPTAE
Sequence of human TLR8 (Q9NR97 27-1041): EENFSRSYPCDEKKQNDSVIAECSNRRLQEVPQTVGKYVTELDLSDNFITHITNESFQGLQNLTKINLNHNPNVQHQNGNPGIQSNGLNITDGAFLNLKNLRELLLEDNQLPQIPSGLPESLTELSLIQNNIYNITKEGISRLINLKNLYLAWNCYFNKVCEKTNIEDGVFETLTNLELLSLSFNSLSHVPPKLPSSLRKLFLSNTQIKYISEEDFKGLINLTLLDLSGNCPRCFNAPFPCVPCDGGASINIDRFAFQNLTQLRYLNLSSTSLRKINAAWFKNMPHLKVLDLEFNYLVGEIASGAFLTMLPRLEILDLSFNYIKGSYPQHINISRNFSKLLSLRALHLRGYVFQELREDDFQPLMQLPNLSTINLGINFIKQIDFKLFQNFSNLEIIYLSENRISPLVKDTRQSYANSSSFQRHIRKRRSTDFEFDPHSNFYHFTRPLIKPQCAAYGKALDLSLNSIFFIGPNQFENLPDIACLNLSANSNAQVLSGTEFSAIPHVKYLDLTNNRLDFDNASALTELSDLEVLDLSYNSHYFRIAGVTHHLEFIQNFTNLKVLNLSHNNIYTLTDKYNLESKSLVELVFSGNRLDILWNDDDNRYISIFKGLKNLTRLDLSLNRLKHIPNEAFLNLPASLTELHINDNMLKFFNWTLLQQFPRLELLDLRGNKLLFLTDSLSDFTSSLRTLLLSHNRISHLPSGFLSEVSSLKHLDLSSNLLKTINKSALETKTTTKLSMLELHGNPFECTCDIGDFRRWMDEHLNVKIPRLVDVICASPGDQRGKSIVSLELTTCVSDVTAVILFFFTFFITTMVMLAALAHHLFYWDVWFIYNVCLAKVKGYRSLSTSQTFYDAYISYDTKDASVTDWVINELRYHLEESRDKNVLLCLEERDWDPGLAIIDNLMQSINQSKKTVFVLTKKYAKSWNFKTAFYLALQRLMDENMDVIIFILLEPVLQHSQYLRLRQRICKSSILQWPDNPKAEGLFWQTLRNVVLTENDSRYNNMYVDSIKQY

Question: Which results are given for `Cc1c(-c2[nH]c3ccc(C4CCC(N5CC6(C5)CS(=O)(=O)C6)CC4)nc3c2C(C)C)cn2ncnc2c1C` (centres unmarked) [Example 438, 6-((1r,4r)-(4-(2-(7,8-dimethyl-[1,2,4]triazolo[1,5-a]pyridin-6-yl)-3-isopropyl-1H-pyrrolo[3,2-b]pyridin-5-yl)cyclohexyl)-2-thia-6-azaspiro[3.3]heptane 2,2-dioxide]?
Answer: IL-10, percent reduction in disease severity [1, 5]: 0%; IL-12p40, percent reduction in disease severity [1, 5]: 16%; Anti-SmRNP Ab titer, percent reduction in disease severity [1, 5]: 23%; Anti-dsDNA Ab titer, percent reduction in disease severity [1, 5]: 0%; Proteinuria, percent reduction in disease severity [1, 5]: 31%; Urinary NGAL, percent reduction in disease severity [1, 5]: 34%; Urinary TIMP1, percent reduction in disease severity [1, 5]: 0%; IL-10, percent reduction in disease severity [1, 6]: 18%; IL-12p40, percent reduction in disease severity [1, 6]: 33%; Anti-SmRNP Ab titer, percent reduction in disease severity [1, 6]: 44%; Anti-dsDNA Ab titer, percent reduction in disease severity [1, 6]: 28%; Proteinuria, percent reduction in disease severity [1, 6]: 80%; Urinary NGAL, percent reduction in disease severity [1, 6]: 58%; Urinary TIMP1, percent reduction in disease severity [1, 6]: 42%; IL-10, percent reduction in disease severity [1, 7]: 19%; IL-12p40, percent reduction in disease severity [1, 7]: 26%; Anti-SmRNP Ab titer, percent reduction in disease severity [1, 7]: 49%; Anti-dsDNA Ab titer, percent reduction in disease severity [1, 7]: 39%; Proteinuria, percent reduction in disease severity [1, 7]: 73%; Urinary NGAL, percent reduction in disease severity [1, 7]: 63%; Urinary TIMP1, percent reduction in disease severity [1, 7]: 54%; IL-10, percent reduction in disease severity [1, 8]: 21%; IL-12p40, percent reduction in disease severity [1, 8]: 28%; Anti-SmRNP Ab titer, percent reduction in disease severity [1, 8]: 43%; Anti-dsDNA Ab titer, percent reduction in disease severity [1, 8]: 44%; Proteinuria, percent reduction in disease severity [1, 8]: 82%; Urinary NGAL, percent reduction in disease severity [1, 8]: 67%; Urinary TIMP1, percent reduction in disease severity [1, 8]: 56%; IL-10, percent reduction in disease severity [1, 9]: 22%; IL-12p40, percent reduction in disease severity [1, 9]: 41%; Anti-SmRNP Ab titer, percent reduction in disease severity [1, 9]: 51%; Anti-dsDNA Ab titer, percent reduction in disease severity [1, 9]: 37%; Proteinuria, percent reduction in disease severity [1, 9]: 84%; Urinary NGAL, percent reduction in disease severity [1, 9]: 67%; Urinary TIMP1, percent reduction in disease severity [1, 9]: 79%; IC50 [2]: 0.39 nM; IC50 [3]: 1460 nM; % inhibition of IFN-alpha ([4]; 0.003 mg/kg oral): 36%; % inhibition of IL6 ([4]; 0.003 mg/kg oral): 25%; % inhibition of IFN-alpha ([4]; 0.006 mg/kg oral): 57%; % inhibition of IL6 ([4]; 0.006 mg/kg oral): 41%; % inhibition of IFN-alpha ([4]; 0.03 mg/kg oral): 67%; % inhibition of IL6 ([4]; 0.03 mg/kg oral): 56%; % inhibition of IFN-alpha ([4]; 0.15 mg/kg oral): 96%; % inhibition of IL6 ([4]; 0.15 mg/kg oral): 78%; % inhibition of IFN-alpha ([4]; 0.3 mg/kg oral): 98%; % inhibition of IL6 ([4]; 0.3 mg/kg oral): 82%

From patent US10544143B2, “4-azaindole compounds” (BRISTOL-MYERS SQUIBB COMPANY, priority 2017, dated 2020)
